Test [1] concerns the target T1, human soluble TNFR1 (sTNFR1) (Homo sapiens, UniProt P19438).
T1 construct: made in house; host or cells: Sf21 (baculovirus)
T1 sequence (P19438 with tags, fused parts or gaps): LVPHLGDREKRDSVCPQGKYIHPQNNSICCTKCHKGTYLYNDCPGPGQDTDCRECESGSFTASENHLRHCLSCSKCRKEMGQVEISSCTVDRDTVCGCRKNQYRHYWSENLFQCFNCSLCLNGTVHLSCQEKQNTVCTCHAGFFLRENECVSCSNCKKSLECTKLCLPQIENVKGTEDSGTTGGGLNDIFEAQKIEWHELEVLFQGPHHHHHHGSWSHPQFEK
As to the kind of experiment: Human sTNFR1-peptide displacement assay (LanthaScreen Eu TR-FRET binding assay). An outline of the steps:
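Readout is the 665/615 nm TR-FRET ratio (Eu anti-His donor, streptavidin-Alexa647 acceptor), normalized to DMSO and saturating displacer, fit by Morrison-based five-parameter logistic for Kd^app. His-tagged sTNFR1 (1-211) prebound to 100 nM biotinylated peptide SEQ ID NO.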
(In general: In TR-FRET formats the signal depends on donor and acceptor labels being close together.)

Test [2] has as its target T2, TNFα-induced NF-κB signal transduction pathway (TNFR1 signaling) in THP-1 cells (Homo sapiens, UniProt P19438).
T2 sequence (P19438 30-455): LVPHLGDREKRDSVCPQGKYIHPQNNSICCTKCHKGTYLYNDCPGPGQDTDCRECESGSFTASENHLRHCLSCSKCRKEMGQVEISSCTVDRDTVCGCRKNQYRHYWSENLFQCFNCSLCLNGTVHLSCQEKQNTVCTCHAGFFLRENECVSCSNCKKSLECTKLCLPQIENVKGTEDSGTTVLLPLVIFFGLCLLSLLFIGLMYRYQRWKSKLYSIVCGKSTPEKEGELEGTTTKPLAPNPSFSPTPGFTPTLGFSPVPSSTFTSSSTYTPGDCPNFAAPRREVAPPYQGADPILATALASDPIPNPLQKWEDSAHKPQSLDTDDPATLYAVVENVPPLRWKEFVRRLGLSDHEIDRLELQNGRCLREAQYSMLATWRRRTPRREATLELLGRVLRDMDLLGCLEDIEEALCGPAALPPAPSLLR
As to the kind of experiment: THP-1 Lucia NF-κB reporter cell assay, inhibition of TNFα-induced NF-κB signaling. In kind it is cell-based. As to conditions: THP-1 NF-κB Lucia reporter cells, 10 ng/mL TNFα, 16-18 h, secreted luciferase; read-out: THP-1 IC50. The procedure, abridged: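 Macrocyclic peptides were preincubated 1 h at 37 °C with THP-1 NF-κB-Lucia reporter cells (20,000 cells/well) in antibiotic-free RPMI 1640/10% FBS, then stimulated with 10 ng/mL human TNFα overnight (16-18 h). Secreted luciferase in supernatant was read by luminescence; IC50 from 4-parameter logistic fits.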

Structures are written as SMILES. Numbered stars: 1 amine (or outer) side, 2 acyl side, 3 side chain; on linkers, the order of the positions; unused ones are H or OH. Square brackets hold non-standard residues; d marks the D form. Peptide text beside a SMILES is read from it. Trp(βS-Me,7-OMe) = COc1cccc2c([C@H](C)[C@H](N)C(=O)O)c[nH]c12; X49 = C[N+](C)(C)CC(=O)N[C@H]1C[C@H](C(=O)[*:2])N([*:1])C1; X44 = NC(=O)c1ccc([C@@H](O)[C@H](N[*:1])C(=O)[*:2])cc1; X28 = NC(=O)c1ccc([C@H](O)[C@H](N[*:1])C(=O)[*:2])cc1; Phe(2-F,4-COOH) = N[C@@H](Cc1ccc(C(=O)O)cc1F)C(=O)O; Trp(7-CN) = N#Cc1cccc2c(C[C@H](N)C(=O)O)c[nH]c12; Trp(7-Cl) = N[C@@H](Cc1c[nH]c2c(Cl)cccc12)C(=O)O; X27 = O=C(O)c1ccc(C[C@H](N[*:1])C(=O)[*:2])cc1F; Phe(4-CONH2) = NC(=O)c1ccc(C[C@H](N)C(=O)O)cc1; Phe(4-COOH) = N[C@@H](Cc1ccc(C(=O)O)cc1)C(=O)O; 4Pal(3S-Me) = C[C@@H](c1ccncc1)[C@H](N)C(=O)O; Trp(7-aza) = N[C@@H](Cc1c[nH]c2ncccc12)C(=O)O; Pip(5R-OH) = O=C(O)[C@@H]1CC[C@@H](O)CN1; X1 = O=C([C@@H]1CC[C@H](N[*:1])C1)[*:2]; Gly(But-3-enyl) = C=CCC[C@H](N)C(=O)O; Pip(4-aza) = O=C(O)[C@@H]1CNCCN1; 4Pal = N[C@@H](Cc1ccncc1)C(=O)O; NMeE = CN[C@@H](CCC(=O)O)C(=O)O; dHyp = O=C(O)[C@H]1C[C@H](O)CN1; aThr = C[C@H](O)[C@H](N)C(=O)O; Ahp(2) = CCCCC[C@H](N)C(=O)O; αMeS = C[C@](N)(CO)C(=O)O; Nle = CCCC[C@H](N)C(=O)O; Sar = CNCC(=O)O

As a reminder, the Kd is the constant that tells how readily two partners part at equilibrium. What is called IC50 is the concentration at which inhibition is half-maximal.

In test [1], `CCCC[C@@H]1NC(=O)[C@@H]2CC[C@@H](C2)NC(=O)[C@H]([C@@H](C)c2c[nH]c3c(OC)cccc23)NC(=O)CN(C)C(=O)[C@H]([C@H](O)c2ccc(C(N)=O)cc2)NC(=O)[C@H]([C@@H](O)c2ccc(C(N)=O)cc2)NC(=O)[C@](C)(CO)NC(=O)[C@H](Cc2c[nH]c3c(C#N)cccc23)NC(=O)[C@H](Cc2ccc(C(=O)O)cc2)NC(=O)[C@H](CC(N)=O)NC(=O)[C@H]2C[C@H](O)CN2C(=O)[C@H](Cc2c[nH]c3ncccc23)NC(=O)[C@@H]2CC[C@@H](O)CN2C(=O)[C@H](Cc2ccncc2)NC1=O` [SEQ ID NO. 90] (cyclo([4Pal][Pip(5R-OH)][Trp(7-aza)][dHyp]N[Phe(4-COOH)][Trp(7-CN)][αMeS][X28][X44][Sar][Trp(βS-Me,7-OMe)][X1][Nle])) came in with a Kd of 0.12 nM. In test [2], the IC50 was 1.2 nM.
The matching figures for `CCCCC[C@@H]1NC(=O)[C@@H]2CC[C@@H](C2)NC(=O)[C@H]([C@@H](C)c2c[nH]c3c(OC)cccc23)NC(=O)CN(C)C(=O)[C@H](Cc2ccc(C(N)=O)cc2)NC(=O)[C@H](Cc2ccc(C(N)=O)cc2)NC(=O)[C@](C)(CO)NC(=O)[C@H](Cc2c[nH]c3c(C#N)cccc23)NC(=O)[C@H](Cc2ccc(C(=O)O)cc2)NC(=O)[C@H](CC(N)=O)NC(=O)[C@H]2C[C@H](O)CN2C(=O)[C@H](Cc2c[nH]c3ccccc23)NC(=O)[C@H]([C@H](C)O)NC(=O)[C@H]([C@@H](C)c2ccncc2)NC1=O` [SEQ ID NO. 91] (cyclo([Ahp(2)][4Pal(3S-Me)][aThr]W[dHyp]N[Phe(4-COOH)][Trp(7-CN)][αMeS][Phe(4-CONH2)][Phe(4-CONH2)][Sar][Trp(βS-Me,7-OMe)][X1])): 0.24 nM and 0.9 nM.
In test [1], `C=CCC[C@@H]1NC(=O)[C@@H]2CC[C@@H](C2)NC(=O)[C@H]([C@@H](C)c2c[nH]c3c(OC)cccc23)NC(=O)CN(C)C(=O)[C@H](Cc2ccc(C(N)=O)cc2)NC(=O)[C@H](Cc2ccc(C(N)=O)cc2)NC(=O)[C@](C)(CO)NC(=O)[C@H](Cc2c[nH]c3c(Cl)cccc23)NC(=O)[C@H](Cc2ccc(C(=O)O)cc2)NC(=O)[C@H](CC(N)=O)NC(=O)[C@H]2C[C@H](O)CN2C(=O)[C@H](Cc2c[nH]c3ccccc23)NC(=O)[C@@H]2CC[C@@H](O)CN2C(=O)[C@H](Cc2ccncc2)NC1=O` [SEQ ID NO. 103] (cyclo([4Pal][Pip(5R-OH)]W[dHyp]N[Phe(4-COOH)][Trp(7-Cl)][αMeS][Phe(4-CONH2)][Phe(4-CONH2)][Sar][Trp(βS-Me,7-OMe)][X1][Gly(But-3-enyl)])) yielded a Kd of 0.05 nM. In addition, the IC50 in test [2] was 0.8 nM.
In turn, `CCCC[C@@H]1NC(=O)[C@@H]2CC[C@@H](C2)NC(=O)[C@H]([C@@H](C)c2c[nH]c3c(OC)cccc23)NC(=O)CN(C)C(=O)[C@H](Cc2ccc(C(=O)O)cc2F)NC(=O)[C@H](Cc2ccc(C(=O)O)cc2)NC(=O)[C@](C)(CO)NC(=O)[C@H](Cc2c[nH]c3c(Cl)cccc23)NC(=O)[C@H](Cc2ccncc2)NC(=O)[C@H](CC(N)=O)NC(=O)[C@H](CCC(=O)O)N(C)C(=O)[C@H](Cc2c[nH]c3ccccc23)NC(=O)[C@@H]2CNCCN2C(=O)[C@H](Cc2ccncc2)NC1=O` [SEQ ID NO. 107] (cyclo([4Pal][Trp(7-Cl)][αMeS][Phe(4-COOH)][Phe(2-F,4-COOH)][Sar][Trp(βS-Me,7-OMe)][X1][Nle][4Pal][Pip(4-aza)]W[NMeE]N)) registered a Kd in test [1] of 0.3 nM. Further, the IC50 in test [2] came to 1 nM.
As for `CCCC[C@@H]1NC(=O)[C@@H]2CC[C@@H](C2)NC(=O)[C@H]([C@@H](C)c2c[nH]c3c(OC)cccc23)NC(=O)CN(C)C(=O)[C@H](Cc2ccc(C(=O)O)c(F)c2)NC(=O)[C@H](Cc2ccc(C(N)=O)cc2)NC(=O)[C@](C)(CO)NC(=O)[C@H](Cc2c[nH]c3c(C#N)cccc23)NC(=O)[C@H](Cc2ccc(C(=O)O)cc2)NC(=O)[C@H](CC(N)=O)NC(=O)[C@H]2C[C@H](NC(=O)C[N+](C)(C)C)CN2C(=O)[C@H](Cc2c[nH]c3ncccc23)NC(=O)[C@@H]2CC[C@@H](O)CN2C(=O)[C@H](Cc2ccncc2)NC1=O` [SEQ ID NO. 113] (cyclo([4Pal][Pip(5R-OH)][Trp(7-aza)][X49]N[Phe(4-COOH)][Trp(7-CN)][αMeS][Phe(4-CONH2)][X27][Sar][Trp(βS-Me,7-OMe)][X1][Nle])), in test [1], the Kd was found to be 0.09 nM. Further, in test [2], the IC50 was determined as 0.5 nM.
